Results on 24 molecules are retold here after patent US20230203004A1, “RSV INHIBITING 3-SUBSTITUTED QUINOLINE AND CINNOLINE DERIVATIVES” (Janssen Sciences Ireland Unlimited Company, priority 2020, published 2023).

Each structure is given as a SMILES string. Where two headings read alike, the source gives them in different places.

In one series the test system is rgRSV224 virus. In words: Antiviral activity: rgRSV224 (GFP) replication in HeLa cells. In kind it is cell-based, respiratory syncytial virus (RSV). Particulars: human respiratory syncytial virus, HeLa. The method in brief: (§1)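 Over 3 days at 37 °C, compound titrations (4-fold steps, nine dilutions) were tested on HeLa cells infected with rgRSV224 (MOI = 1), inhibition of GFP signal giving EC50. In parallel plates, ATP content of HeLa cells after 3-day exposure defined CC50.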

The nature of series [1]: Cytotoxicity in HeLa cells (ATP content, ATPlite kit). It counts as cell-based. Particulars: human. In outline:
as §1
On the technique in general: ATP-based viability assays read luminescence as a measure of living cells.

Setting [2] is: 72 h, read-out: RSV HELA EC50, HeLa cells, rgRSV224 MOI = 1, GFP expression three days post-virus exposure, averaged data of several repeat experiments.
[3] abbreviates: comparison table 5.3, antiviral RSV assay of Example 5.1.

As usually defined, the EC50 is the concentration giving half of the maximal effect. A word on the CC50: it is the concentration that lowers cell viability or growth by half.

For the molecule `Cc1cc2cc(C(=O)NC[C@](O)(c3cc(C(C)(C)O)c(F)c(-c4ccc(F)cc4)n3)C3CC3)cc(OC3CC3)c2nn1` [compound 265, (-)-N-{2-Cyclopropyl-2-[5-Fluoro-6-(4-Fluorophenyl)-4-(2-Hydroxypropan-2-yl)Pyridin-2-yl]-2-Hydroxyethyl}-8-(Cyclopropyloxy)-3-Methylcinnoline-6-Carboxamide], the half-maximal effective concentration (EC50) in the series on rgRSV224 virus (setting [2]) amounted to 0.69 nM. The same molecule registered a 50% cytotoxic concentration (CC50) at 3 days in series [1] (TOX HELA CC50) of 39 µM.
On to `COc1cc(C(=O)NC[C@](O)(c2cc(C(C)(C)O)c(F)c(-c3ccc(F)cc3)n2)C(F)(F)F)cc2cc(C(F)F)nnc12` [compound 266, (-)(Difluoromethyl)-8-Methoxy-N-{3,3,3-Trifluoro-2-[5-Fluoro-6-(4-Fluorophenyl)-4-(2-Hydroxypropan-2-yl)Pyridin-2-yl]-2-Hydroxypropyl}Cinnoline-6-Carboxamide], for which, in the series with rgRSV224 virus (setting [2]), the half-maximal effective concentration (EC50) was determined as 3.5 nM. The molecule also registered a CC50 at 3 days in series [1] (TOX HELA CC50) of 25 µM.
For the molecule `COc1cc(C(=O)NC[C@](O)(c2cc(C(C)(C)O)c(Cl)c(-c3ccc(F)cc3)n2)C(F)(F)F)cc2cc(C(F)F)nnc12` [compound 267, (-)-N-{2-[5-Chloro-6-(4-Fluorophenyl)-4-(2-Hydroxypropan-2-yl)Pyridin-2-yl]-3,3,3-Trifluoro-2-Hydroxypropyl}-3-(Difluoromethyl)-8-Methoxycinnoline-6-Carboxamide], the EC50 in the series on rgRSV224 virus (setting [2]) amounted to 3 nM. This molecule displayed a half-maximal cytotoxic concentration (CC50) at 3 days in series [1] (TOX HELA CC50) of 14 µM.
In the case of `COc1cc(C(=O)NC[C@](O)(c2cc(C(C)(C)O)c(Cl)c(-c3ccc(F)cc3)n2)C2CC2)cc2cc(C(F)F)nnc12` [compound 268, N-{(-)[5-Chloro-6-(4-Fluorophenyl)-4-(2-Hydroxypropanyl)Pyridinyl]CyclopropylHydroxyethyl}-3-(Difluoromethyl)-8-Methoxycinnoline-6-Carboxamide], the half-maximal effective concentration (EC50) with rgRSV224 virus (setting [2]) was found to be 0.67 nM. In series [1] (TOX HELA CC50), this molecule gave a CC50 at 3 days of 18 µM.
Regarding `COc1cc(C(=O)NC[C@](O)(c2cc(C(C)(C)O)c(F)c(-c3ccc(F)cc3)n2)C2CC2)cc2cc(C(F)F)nnc12` [compound 269], the EC50 in the series with rgRSV224 virus (setting [2]) is 1.2 nM. For the same molecule, in series [1] (TOX HELA CC50), the CC50 at 3 days came out at 20 µM.
In the same order, the values of `COc1cc(C(=O)NC[C@](O)(c2cc(C(C)(C)O)c(F)c(-c3ccc(F)c(F)c3)n2)C2CC2)cc2cc(C(F)F)nnc12` [compound 270, (-)-N-{2-Cyclopropyl-2-[6-(3,4-Difluorophenyl)-5-Fluoro-4-(2-Hydroxypropan-2-yl)Pyridin-2-yl]-2-Hydroxyethyl}-3-(Difluoromethyl)-8-Methoxycinnoline-6-Carboxamide] are 0.84 nM and 15 µM.
On to `COc1cc(C(=O)NC[C@](O)(c2cc(C(C)(C)O)c(F)c(-c3ccc(F)cc3)n2)C2CC2)cc2cc(C3CC3)nnc12` [compound 271, 3-Cyclopropyl-N-{(-)-2-Cyclopropyl-2-[5-Fluoro-6-(4-Fluorophenyl)-4-(2-Hydroxypropan-2-yl)Pyridin-2-yl]-2-Hydroxyethyl)-8-Methoxycinnoline-6-Carboxamide], for which the EC50 with rgRSV224 virus (setting [2]) and in the series on rgRSV224 virus (setting [3]) was 1.5 nM throughout. The CC50 at 3 days in series [1] (CC50) and in series [1] (TOX HELA CC50) was 11 µM each time.
As for `Cc1cnc2c(OC3CC3)cc(C(=O)NC[C@](O)(c3cc(C(C)(C)O)c(F)c(-c4ccc(F)cc4)n3)C(F)(F)F)cc2c1` [compound 272, (-)8-(Cyclopropyloxy)-3-Methyl-N-{(2S)-3,3,3-Trifluoro-2-[5-Fluoro-6-(4-Fluorophenyl)-4-(2-Hydroxypropan-2-yl)Pyridin-2-yl]-2-Hydroxypropyl}Quinoline-6-Carboxamide], the values for the EC50 in the series on rgRSV224 virus (setting [2]) and in the series with rgRSV224 virus (setting [3]) were 3.7 nM and 4 nM, respectively. Moreover, the CC50 at 3 days in series [1] (CC50) and in series [1] (TOX HELA CC50) was 17 µM in each case.
`COc1cc(C(=O)NC[C@](O)(c2cc(C(C)(C)O)c(F)c(-c3ccc(F)cc3)n2)C(F)(F)F)cc2cc(C)c(F)nc12` [compound 273, (-)Fluoro-8-methoxy-3-methyl-n-(3,3,3-trifluoro(5-fluoro-6-(4-fluorophenyl)-4-(2-hydroxypropanyl)pyridinyl)hydroxypropyl)quinoline-6-carboxamide]: the half-maximal effective concentration (EC50) with rgRSV224 virus (setting [2]) was determined as 3.81 nM. Moreover, half-maximal cytotoxicity in series [1] (TOX HELA CC50) (CC50 at 3 days) was put at 13 µM.
As to `COc1cc(C(=O)NC[C@](O)(c2cc(C(C)(C)O)c(F)c(-c3ccc(C(F)(F)F)cc3)n2)C(F)(F)F)cc2cc(C)nnc12` [compound 274, (-)Methoxy-3-Methyl-N-(3,3,3-Trifluoro-2-(5-Fluoro-4-(2-Hydroxypropan-2-yl)-6-(4-(Trifluoromethyl)Phenyl)pyridin-2-yl)-2-Hydroxypropyl)Cinnoline-6-Carboxamide], in the series on rgRSV224 virus (setting [2]), the EC50 is 1.48 nM. For the same molecule, the CC50 at 3 days in series [1] (TOX HELA CC50) was determined as 11 µM.
As to `COc1cc(C(=O)NC[C@@](O)(c2cc(C(C)(C)O)c(F)c(-c3ccc(F)cc3)n2)C2CC2)cc2cc(C)nnc12` [compound 275], the concentration giving a half-maximal response (EC50) in the series on rgRSV224 virus (setting [2]) is 97 nM. Further, the CC50 at 3 days in series [1] (TOX HELA CC50) came to 17 µM.
Consider `COc1cc(C(=O)NC[C@](O)(c2cc(C(C)(C)NS(C)(=O)=O)c(Cl)c(-c3ccc(F)cc3)n2)C(F)(F)F)cc2cc(C)nnc12` [compound 276, (-)-N-{2-[5-Chloro-6-(4-Fluorophenyl)-4-{2-[(Methanesulfonyl)Amino]Propan-2-yl}Pyridin-2-yl]-3,3,3-Trifluoro-2-Hydroxypropyl}-8-Methoxy-3-Methylcinnoline-6-Carboxamide], for which the concentration for a half-maximal effect (EC50) with rgRSV224 virus (setting [2]) turned out to be 3.8 nM. In series [1] (TOX HELA CC50), this molecule came in with a CC50 at 3 days of 51 µM.
Regarding `COc1cc(C(=O)NC[C@](O)(c2cc(C(C)(C)O)c(Cl)c(-c3ccc(F)cc3)n2)C(F)(F)F)cc2cc(C(F)(F)F)nnc12` [compound 277], the EC50 in the series with rgRSV224 virus (setting [2]) is 16 nM. The molecule also came in with a 50% cytotoxic concentration (CC50) at 3 days in series [1] (TOX HELA CC50) of 15 µM.
In the same order, the values of `COc1cc(C(=O)NC[C@](O)(c2cc(C(C)(C)O)c(F)c(-c3ccc(Cl)cc3)n2)C2CC2)cc2cc(C)nnc12` [compound 278] are 0.65 nM and 29 µM.
As to `COc1cc(C(=O)NC[C@@](O)(c2nc(-c3ccc(F)cc3)cc(C(C)(C)O)c2F)C(F)(F)F)cc2cc(C)nnc12` [compound 280, (+)Methoxy-3-Methyl-N-(3.3.3-Trifluoro-2-(3-Fluoro-6-(4-Fluorophenyl)-4-(2-Hydroxypropan-2-yl)Pyridm-2-yl)-2-Hydroxypropyl)Cinnoline-6-Carboxamide], in the series with rgRSV224 virus (setting [2]), the half-maximal effective concentration (EC50) worked out at 449 nM. In series [1] (TOX HELA CC50), this molecule gave a cytotoxic concentration (CC50) at 3 days of 9.4 µM.
Turning to `COc1cc(C(=O)NC[C@](O)(c2nc(-c3ccc(F)cc3)cc(C(C)(C)O)c2F)C(F)(F)F)cc2cc(C)nnc12` [compound 281, (-)Methoxy-3-Methyl-N-(3,3,3-Trifluoro-2-(3-Fluoro-6-(4-Fluorophenyl)-4-(2-Hydroxypropan-2-yl)Pyridin-2-yl)-2-Hydroxypropyl)Cinnoline-6-Carboxarmide], in the series with rgRSV224 virus (setting [2]), the EC50 was 29 nM. Also, half-maximal cytotoxicity in series [1] (TOX HELA CC50) (CC50 at 3 days) was put at 24 µM.
Turning to `COc1cc(C(=O)NC[C@](O)(c2cc(C(C)(C)O)c(Cl)c(-c3ccc(F)cc3)n2)C2CC2)cc2cc(C3CC3)nnc12` [compound 282], the EC50 in the series on rgRSV224 virus (setting [2]) worked out at 3.2 nM. The 50% cytotoxic concentration (CC50) at 3 days in series [1] (TOX HELA CC50) was 13 µM.
With `COc1cc(C(=O)NC[C@](O)(c2cc(C(C)(C)O)c(F)c(-c3ccc(F)cc3)n2)C(C)C)cc2cc(C3CC3)nnc12` [compound 283, (-)Cyclopropyl-N-(2-(5-Fluoro-6-(4-Fluorophenyl)-4-(2-Hydroxypropan-2-yl)Pyridin-2-yl)-2-HydroxyMethylbutyl)-8-Methoxycinnoline-6-Carboxamide], the half-maximal effective concentration (EC50) with rgRSV224 virus (setting [2]) came out at 8.5 nM. Also, in series [1] (TOX HELA CC50), the CC50 at 3 days was determined as 12 µM.
In the case of `COc1cc(C(=O)NC[C@](O)(c2cc(C(C)(C)O)c(F)c(-c3ccc(F)cc3)n2)C2CC2)cc2cc(C(F)(F)F)nnc12` [compound 284], in the series with rgRSV224 virus (setting [2]), the EC50 worked out at 4.8 nM. In series [1] (TOX HELA CC50), this molecule showed a CC50 at 3 days of 16 µM.
On the same counts, the results for `COc1cc(C(=O)NC[C@](O)(c2cc(C(C)(C)O)c(F)c(-c3ccc(F)cc3)n2)C(C)C)cc2cc(C(F)F)nnc12` [compound 285, (S)(Difluoromethyl)-N-(2-(5-Fluoro-6-(4-Fluorophenyl)-4-(2-Hydroxypropan-2-yl)Pyridin-2-yl)-2-HydroxyMethylbutyl)-8-Methoxycinnoline-6-Carboxamide] are 6.5 nM and 16 µM.
In the case of `COc1cc(C(=O)NC[C@](O)(c2cc(C(C)(C)O)c(F)c(-c3ccc(F)cc3)n2)C(F)(F)F)cc2cc(C3CC3)nnc12` [compound 286, (-)Cyclopropyl-8-Methoxy-N-(3,3,3-Trifluoro-2-(5-Fluoro-6-(4-Fluorophenyl)-4-(2-Hydroxypropan-2-yl)Pyridin-2-yl)-2-Hydroxypropyl)Cinnoline-6-Carboxamide], the EC50 with rgRSV224 virus (setting [2]) is 2.6 nM. This molecule had a CC50 at 3 days in series [1] (TOX HELA CC50) of 8.9 µM.
Consider `COc1cc(C(=O)NC[C@](O)(c2nc(-c3ccc(F)cc3)c(F)c(C(C)(C)O)c2F)C2CC2)cc2cc(C(F)F)nnc12` [compound 287], for which the EC50 in the series with rgRSV224 virus (setting [2]) came to 8.9 nM. Also, the CC50 at 3 days in series [1] (TOX HELA CC50) was 37 µM.
In the case of `COc1cc(C(=O)NC[C@](O)(c2nc(-c3ccc(F)cc3)c(F)c(C(C)(C)O)c2F)C2CC2)cc2cc(C3CC3)nnc12` [compound 288, (-)Cyclopropyl-N-(2-Cyclopropyl-2-(3,5-Difluoro-6-(4-Fluorophenyl)-4-(2-Hydroxypropan-2-yl)Pyridin-2-yl)-2-Hydroxyethyl)-8-Methoxycinnoline-6-Carboxamide], in the series on rgRSV224 virus (setting [2]), the EC50 came out at 4.8 nM. For the same molecule, the cytotoxic concentration (CC50) at 3 days in series [1] (TOX HELA CC50) was 21 µM.
In the same order, the values of `[2H]C([2H])([2H])Oc1cc(C(=O)NC[C@](O)(c2cc(C(C)(C)O)c(F)c(-c3ccc(F)cc3)n2)C2CC2)cc2cc(C3CC3)nnc12` [compound 289, (-)Cyclopropyl-N-(2-Cyclopropyl-2-(5-Fluoro-6-(4-Fluorophenyl)-4-(2-Hydroxypropan-2-yl)Pyridin-2-yl)-2-Hydroxyethyl)-8-(Methoxy-d3)Cinnoline-6-Carboxamide] are 1.8 nM and 10 µM.
